From PMC201021 (Malaria Journal, 2003)
Entries after “also recorded” stand apart in the source; their conditions may differ.

Key:
[1] = test system: haematin dimerization to β-haematin; experiment: β-Haematin Inhibitory Activity; assay type: biochemical; conditions: 10 fold molar excess of drug
[2] = test system: haematin dimerization to β-haematin; conditions: cited from earlier work

Row | Compound | inhibition of the BHIA haematin dimerization reaction (in words) [1] | inhibition of the BHIA haematin dimerization reaction (in words) ([1]; listed as PM) | inhibition of spontaneous haematin dimerization to β-haematin in vitro [2]
1 | C=C[C@H]1C[N@@]2CC[C@H]1C[C@@H]2[C@@H](O)c1ccnc2ccccc12 [C, cinchonine] | activity; also recorded: inhibited | – | –
2 | C=C[C@H]1CN2CC[C@H]1C[C@H]2[C@H](O)c1ccnc2ccccc12 [CD, cinchonidine] | activity; also recorded: inhibited | – | –
3 | CCN(CC)CCCC(C)Nc1ccnc2cc(Cl)ccc12 (centres unmarked) [CQ, chloroquine] | inhibited | – | –
4 | CC[C@H]1CN2CC[C@H]1C[C@H]2[C@H](O)c1ccnc2ccc(OC)cc12 [HQ, hydroquinine] | activity; also recorded: inhibited | – | –
5 | CC[C@H]1CN2CC[C@H]1C[C@@H]2[C@@H](O)c1ccnc2ccc(OC)cc12 [HQD, hydroquinidine] | activity; also recorded: inhibited | – | –
6 | CC(CN1c2ccccc2Sc2ccccc21)N(C)C (centres unmarked) [PMZ, promethazine] | Significant inhibition was not seen | no significant interaction | –
7 | C=C[C@H]1CN2CC[C@H]1C[C@@H]2C(O)c1ccnc2ccc(OC)cc12 (some centres unmarked) [Q, 6'-methoxy cinchonan-9-ol] | activity; also recorded: inhibited | – | inhibits
8 | C=C[C@H]1C[N@@]2CC[C@H]1C[C@@H]2[C@@H](O)c1ccnc2ccc(OC)cc12 [QD, quinidine] | activity; also recorded: inhibited | – | –
9 | COc1ccc(CCN(C)CCCC(C#N)(c2ccc(OC)c(OC)c2)C(C)C)cc1OC (centres unmarked) [VE, Verapamil] | Significant inhibition was not seen; also recorded: no significant interaction | – | –
